Measurements from patent publication US20200399238A1, “THERAPEUTIC AURONES” (MIDDLE TENNESSEE STATE UNIVERSITY, priority 2016, published 2020).
Read-outs that look alike come from different tables or passages of the source.

Tests used:
[1] = system: Trypanosoma cruzi Tulahuen cells expressing beta-galactosidase; test: T. cruzi intracellular assay (beta-galactosidase, L6 host cells); conditions: for IC50: Trypanosoma cruzi, TULAHUEN
[2] = system: Trypanosoma brucei brucei 427 cells; test: T. brucei culture and assay (PrestoBlue); format: cell-based; conditions: Trypanosoma brucei
[3] = system: C. albicans (ATCC strain 90028); test: Antifungal microdilution broth assay (PrestoBlue), C. albicans; format: cell-based, Candida albicans; conditions: Candida albicans, 100 μM
Method: Sigma-Aldrich) was used as the base medium for testing. […] solution of morpholinepropanesulfonic acid (MOPS; Sigma-Aldrich) was added to the RPMI to a final concentration of 0.165 M for buffering (RPMI-MOPS). This medium was adjusted to a pH of 7.0 with 10 M NaOH and filter sterilized. C. albicans (ATCC strain 90028), C. [NT] strain 66032), and C. tropicalis (ATCC strain 750) were cultured on potato dextrose agar (Sigma-Aldrich) plates, and incubated at 35° C. for 24 hours. For antifungal testing, overnight colonies were adjusted to 1.5×10^3 cells/mL, hereafter referred to as the test inoculum. PrestoBlue® (Life Technologies, Invitrogen, Carlsbad, Calif.), a resazurin-based cell viability reagent that, in metabolically active cells, is reduced from blue, non-fluorescent resazurin, to red, fluorescent resorufin, was used to assess inhibition of yeast growth by the aurones. […] Following addition of aurone, plates were then incubated for 24 hours at 35° C. PrestoBlue was added to a final concentration of 10% in each well and fluorescence read at 560 nm excitation and 590 nm emission, per manufacturer instructions, using a SpectraMax M2e spectrophotometer (Molecular Devices, LLC, Sunnyvale, Calif.). To optimize the PrestoBlue reduction time, RFUs were collected at 15 minute intervals for 4 hours using a reference antifungal. […] IC50 determination was calculated using GraphPad Prism version 7.01 for Windows (GraphPad Software, Inc., La Jolla, Calif.) from the RFUs at dilution points. Calculations were made with a nonlinear regression after transforming the molar concentrations of the aurones into the logarithmic form. Graphing was accomplished utilizing the same program following a four parameter curve fitting sigmoidal plot of the data. All aurones and controls were tested in triplicate and all testing was repeated in at least three independent experiments.

[4] = system: rat skeletal muscle cell line, L6; test: cells; format: cell-based; conditions: Rattus norvegicus
[5] = system: Leishmania amazonensis promastigotes expressing beta-lactamase; test: microbe, parasite or virus in culture; format: cell-based; conditions: Leishmania amazonensis, read-out: IC50 L. amaz.
[6] = read-out: IC50 T. cruzi, Table 1, intracellular assay, mean of 2(+) trials (^c one trial)
[7] = Table 1, mean of 2(+) independent trials, read-out: IC50 T. brucei
[8] = ATCC90028, Table 4B, C. albicans, value ± spread, read-out: Percent Inhibition (at 100 μM)
[9] = Table 1, read-out: IC50 Toxicity (L6)
[10] = read-out: IC50 TC-I, Table 3A, weighted means of two or more independent trials
[11] = ATCC90028, Table 4A, read-out: C. albicans inhibition (at 100 μM)
[12] = Table 3A, weighted means of two or more independent trials, read-out: IC50 L6
[13] = read-out: IC50 TC-I, Table 3C, intracellular T. cruzi, weighted means of two or more independent trials
[14] = Table 3C, weighted means of two or more independent trials, read-out: IC50 L6

Question: With `Cc1ccc(/C=C2\Oc3ccccc3C2=O)cc1` [Aurone 8c, (Z)-2-(4-methylbenzylidene)benzofuran-3(2H)-one] as the compound, how does the “activity against T. cruzi” value [1] read?
Answer: Its value is “effective against T. cruzi only”.

Question: What about the IC50 ([1]; read-out: T. cruzi IC50 dose) of the same compound?
Answer: Its IC50 is under 10 µM.

Question: What about the IC50 ([2]; read-out: T. brucei IC50 dose) of the same compound?
Answer: Its IC50 is over 50 µM.

Question: And the melting point?
Answer: Its melting point is 75 to 76 °C.

Question: For `COc1cc(/C=C2\Oc3ccccc3C2=O)ccc1O` [Aurone 9053, (Z)-2-(4-hydroxy-3-methoxybenzylidene)benzofuran-3(2H)-one], which IC50 [1, 6] is on record?
Answer: Its IC50 is over 50 µM.

Question: And the IC50 ([1]; read-out: IC50 T. cruzi, Table 2, intracellular assay, mean of 2(+) independent trials)?
Answer: The IC50 was over 50 µM.

Question: What about the IC50 [2, 7] of the same compound?
Answer: Its IC50 is over 50 µM.

Question: What about the inhibition at 100 µM [3, 8] of the same compound?
Answer: Its inhibition at 100 µM is 11.2 ± 2.2%.

Question: What about the IC50 [4, 9] of the same compound?
Answer: Its IC50 is over 200 µM.

Question: What about the IC50 [5] of the same compound?
Answer: Its IC50 is 2.15 µM.

Question: What does the source list for `COc1cccc(/C=C2\Oc3ccccc3C2=O)c1O` [Sample 9055]?
Answer: IC50 [1, 10]: > 50 µM; inhibition at 100 µM [3, 11]: 16.7%; IC50 [4, 12]: > 100 µM

Question: For `N#Cc1cccc(/C=C2\Oc3ccccc3C2=O)c1` [Sample 9070], which IC50 [1, 10] is on record?
Answer: The IC50 was 16.7 µM.

Question: What about the inhibition at 100 µM [3, 11] of the same compound?
Answer: Its inhibition at 100 µM is 14.7%.

Question: And the IC50 [4, 12]?
Answer: The IC50 was over 200 µM.

Question: For `O=C1/C(=C/c2ccccc2I)Oc2ccccc21` [Aurone 9003, (Z)-2-(2-iodobenzylidene)benzofuran-3(2H)-one], which “Selectivity L6/Tc” value ([1]; Table 1, intracellular T. cruzi IC50) is on record?
Answer: The value was over 6.50.

Question: What about the “Selectivity L6/TC-I” value ([1]; Table 3A, estimated from highest L6 dose tested where no L6 IC50) of the same compound?
Answer: Its value is over 6.50.

Question: And the IC50 [1, 6]?
Answer: Its IC50 is 15.4 µM.

Question: And the IC50 [1, 10]?
Answer: Its IC50 is 15.4 µM.

Question: What about the IC50 [2, 7] of the same compound?
Answer: Its IC50 is over 50 µM.

Question: What about the IC50 [4, 9] of the same compound?
Answer: The IC50 was over 100 µM.

Question: And the IC50 [4, 12]?
Answer: The IC50 was over 100 µM.

Question: And the melting point?
Answer: Its melting point is 145 to 148 °C.

Question: For `COc1cc(/C=C2\Oc3ccccc3C2=O)cc(OC)c1OC` [Sample 2002], which IC50 [1, 10] is on record?
Answer: Its IC50 is over 50 µM.

Question: What about the inhibition at 100 µM [3, 11] of the same compound?
Answer: The inhibition at 100 µM was 8.8%.

Question: What about the IC50 [4, 12] of the same compound?
Answer: Its IC50 is over 100 µM.

Question: Which results are given for `O=C1/C(=C/c2ccccc2O)Oc2ccccc21` [Sample 9088]?
Answer: IC50 [1, 10]: 18.4 µM; inhibition at 100 µM [3, 11]: 1%; IC50 [4, 12]: > 100 µM

Question: For `COc1ccc(/C=C2\Oc3ccccc3C2=O)cc1O` [Aurone 9078, (Z)-2-(3-hydroxy-4-methoxybenzylidene)benzofuran-3(2H)-one], which IC50 [2, 7] is on record?
Answer: The IC50 was 41.2 µM.

Question: And the inhibition at 100 µM [3, 8]?
Answer: Its inhibition at 100 µM is 45.6 ± 2.6%.

Question: What about the IC50 [4, 9] of the same compound?
Answer: Its IC50 is 70.7 µM.

Question: And the IC50 [5]?
Answer: Its IC50 is 1.45 µM.

Question: With `O=C1/C(=C/c2ccc(-c3ccccc3)cc2)Oc2ccccc21` [Sample 2018] as the compound, how does the IC50 [1, 13] read?
Answer: The IC50 was 34.4 µM.

Question: And the inhibition at 100 µM [3, 11]?
Answer: Its inhibition at 100 µM is 59.8%.

Question: And the IC50 [4, 14]?
Answer: The IC50 was 298 µM.

Question: What does the source list for `O=C1/C(=C/c2ccc([N+](=O)[O-])cc2)Oc2ccccc21` [Sample 2010]?
Answer: IC50 [1, 10]: 20 µM; inhibition at 100 µM [3, 11]: 3.3%; IC50 [4, 12]: 249 µM

Question: With `O=C1/C(=C/c2cccc([N+](=O)[O-])c2)Oc2ccccc21` [Sample 2015] as the compound, how does the IC50 [1, 10] read?
Answer: The IC50 was 22.6 µM.

Question: What about the inhibition at 100 µM [3, 11] of the same compound?
Answer: Its inhibition at 100 µM is 2.2%.

Question: And the IC50 [4, 12]?
Answer: The IC50 was 226 µM.

Question: Which results are given for `COc1cccc(/C=C2\Oc3ccccc3C2=O)c1O` [Aurone 9055, (Z)-2-(2-hydroxy-3-methoxybenzylidene)benzofuran-3(2H)-one]?
Answer: IC50 [1, 6]: > 50 µM; IC50 [2, 7]: > 50 µM; inhibition at 100 µM [3, 8]: 16.7 ± 0.2%; IC50 [4, 9]: > 100 µM; IC50 [5]: 18.5 µM

Question: With `COc1cc(OC)c2c(c1)O/C(=C\c1ccc(C)cc1)C2=O` [Aurone 7000, (Z)-4,6 dimethoxy-2-(4-methylbenzalidene) benzofuran-3(2H)-one] as the compound, how does the melting point read?
Answer: Its melting point is 145 to 148 °C.

Question: With `Cc1cccc(/C=C2\Oc3ccccc3C2=O)c1` [Sample 9064] as the compound, how does the IC50 [1, 10] read?
Answer: The IC50 was 37.9 µM.

Question: And the inhibition at 100 µM [3, 11]?
Answer: Its inhibition at 100 µM is 32.1%.

Question: And the IC50 [4, 12]?
Answer: The IC50 was 79.9 µM.

Question: With `O=C1/C(=C/C=C/c2ccccc2)Oc2ccccc21` [Sample 2013] as the compound, how does the IC50 [1, 13] read?
Answer: The IC50 was 14.1 µM.

Question: What about the inhibition at 100 µM [3, 11] of the same compound?
Answer: Its inhibition at 100 µM is 64.6%.

Question: And the IC50 [4, 14]?
Answer: Its IC50 is 58 µM.

Question: Which results are given for `N#Cc1ccc(/C=C2\Oc3ccccc3C2=O)cc1` [Sample 2014]?
Answer: IC50 [1, 10]: 23.5 µM; inhibition at 100 µM [3, 11]: 50.5%; IC50 [4, 12]: 239 µM

Question: What does the source list for `O=C1/C(=C/c2ccc(O)cc2)Oc2ccccc21` [Sample 9068]?
Answer: IC50 [1, 10]: > 50 µM; inhibition at 100 µM [3, 11]: 11.1%; IC50 [4, 12]: > 100 µM

Question: What does the source list for `CN(C)c1ccc(/C=C2\Oc3ccccc3C2=O)cc1` [Sample 9087]?
Answer: IC50 [1, 13]: 5.38 µM; inhibition at 100 µM [3, 11]: 31.2%; IC50 [4, 14]: 144 µM

Question: With `COc1cc(/C=C2\Oc3ccccc3C2=O)ccc1O` [Sample 9053] as the compound, how does the IC50 [1, 10] read?
Answer: Its IC50 is over 50 µM.

Question: And the inhibition at 100 µM [3, 11]?
Answer: The inhibition at 100 µM was 11.2%.

Question: And the IC50 [4, 12]?
Answer: The IC50 was over 200 µM.

Question: Which IC50 [1, 10] does the source give for `COc1ccc(/C=C2\Oc3ccccc3C2=O)cc1OC` [Sample 2011] here?
Answer: Its IC50 is 21.9 µM.

Question: And the inhibition at 100 µM [3, 11]?
Answer: The inhibition at 100 µM was 14.2%.

Question: What about the IC50 [4, 12] of the same compound?
Answer: The IC50 was 51.9 µM.
